As a reminder, the logP is a log measure of how a compound divides between an organic and an aqueous phase. Lower therefore signals lower lipophilicity. A word on the chromatographic logP: it is a lipophilicity value derived from retention on a column.

One data set in a line: logP by HPLC on reversed-phase column (EEC Directive 79/831 Annex V.A8). As to conditions: HPLC on a reversed-phase column (C 18), EEC Directive 79/831 Annex V.A8.
Consider `Cn1nc(C(F)F)c(C(=O)Nc2cccc(Sc3ccc(C(C)(C)C)cc3)c2)c1Cl` [compound 259], for which the logP was determined as 5.17.
On the same count and under the same terms, for `Cn1nc(C(F)F)c(C(=O)Nc2cccc(Sc3ccc(C(C)(C)C)cc3)c2)c1F` [compound 258] the value was 4.98; for `Cn1nc(C(F)F)c(C(=O)Nc2ccc(OC(F)(F)F)cc2Br)c1F` [compound 260], 3.76.
On the same count and under the same terms, in the case of `Cn1nc(C(F)F)c(C(=O)Nc2cccc(Oc3ccccc3)c2)c1F` [compound 250] it was 3.35; in that of `C/C(=N\OC(C)(C)C)c1ccc(-c2cccc(NC(=O)c3c(C(F)F)nn(C)c3F)c2)cc1` [compound 247], 5.28.
As to `Cn1nc(C(F)F)c(C(=O)Nc2ccc(Oc3ccccc3)cc2)c1F` [compound 268], the logP stood at 3.29.
Still for that read-out and setting: in the case of `Cn1nc(C(F)F)c(C(=O)Nc2ccc(C3CCCCC3)cc2)c1F` [compound 262] it was 4.21; in that of `Cn1nc(C(F)F)c(C(=O)Nc2cccc(Sc3ccccc3)c2)c1F` [compound 257], 3.65.
`Cn1nc(C(F)F)c(C(=O)Nc2ccc(-c3ccccc3)cc2)c1Cl` [compound 265]: the logP amounted to 3.50.
Molecule `Cn1nc(C(F)F)c(C(=O)Nc2ccc(Cl)cc2)c1F` [compound 261] displayed a logP of 2.70.
On the same count and under the same terms, in the case of `Cn1nc(C(F)F)c(C(=O)Nc2cccc(OCc3ccccc3)c2)c1Cl` [compound 253] it was 3.55.
On the same count and under the same terms, in the case of `CC(C)O/N=C/c1ccc(-c2cccc(NC(=O)c3c(C(F)F)nn(C)c3F)c2)cc1` [compound 245] it was 4.46; in that of `Cn1nc(C(F)F)c(C(=O)Nc2cccc(C#Cc3ccccc3)c2)c1F` [compound 249], 3.83.

Staying with this data set, now noted: HPLC on reversed-phase column (C 18), EEC Directive 79/831 Annex V.A8.
Molecule `Cc1cccc(CCC(C)(C)C)c1NC(=O)c1c(C(F)F)nn(C)c1F` [compound 15] returned a logP of 3.85.
Consider `Cc1ccccc1-c1cccc(NC(=O)c2c(C(F)F)nn(C)c2F)c1` [compound 201], for which the logP amounted to 3.63.
On the same count and under the same terms, in the case of `Cn1nc(C(F)F)c(C(=O)Nc2ccc3c(c2)OC(F)(F)C(F)(F)O3)c1F` [compound 199] it was 3.58; in that of `Cn1nc(C(F)F)c(C(=O)Nc2cccc(-c3ccc(OC(F)(F)F)cc3)c2)c1F` [compound 243], 4.14; in that of `Cc1cc(C)cc(-c2cccc(NC(=O)c3c(C(F)F)nn(C)c3Cl)c2)c1` [compound 206], 4.34.
Same read-out and setting: in the case of `Cn1nc(C(F)F)c(C(=O)Nc2cccc(OCC(C)(C)C)c2)c1F` [compound 182] it was 3.96.
As for `Cn1nc(C(F)F)c(C(=O)Nc2ccc3c(c2)OCO3)c1F` [compound 194], the logP is 2.05.
As to `Cn1nc(C(F)F)c(C(=O)Nc2ccccc2-c2cccc(Cl)c2Cl)c1Cl` [compound 122], the logP is given as 4.06.
Still for that read-out and setting: for `Cn1nc(C(F)F)c(C(=O)Nc2ccccc2OC(F)(F)C(F)F)c1F` [compound 29] the value was 3.08.
Same read-out and setting: for `Cn1nc(C(F)F)c(C(=O)Nc2cccc(-c3cc(Cl)cc(Cl)c3)c2)c1Cl` [compound 232] the value was 4.73; for `Cn1nc(C(F)F)c(C(=O)Nc2ccccc2OC(F)(F)C(F)F)c1Cl` [compound 30], 3.31.
For `Cn1nc(C(F)F)c(C(=O)Nc2cccc(-c3cccc(Cl)c3Cl)c2)c1F` [compound 227], the logP was 3.99.
In turn, `Cc1cc(C)cc(-c2cccc(NC(=O)c3c(C(F)F)nn(C)c3F)c2)c1` [compound 205] showed a logP of 4.11.
On the same count and under the same terms, for `Cn1nc(C(F)F)c(C(=O)Nc2cccc3c2OC(F)(F)O3)c1Cl` [compound 63] the value was 3.00; for `Cn1nc(C(F)F)c(C(=O)Nc2cccc(-c3ccc(F)c(Cl)c3)c2)c1Cl` [compound 218], 4.11; for `Cn1nc(C(F)F)c(C(=O)Nc2cccc(-c3ccc(C(C)(C)C)cc3)c2)c1Cl` [compound 220], 4.93.
The molecule `Cn1nc(C(F)F)c(C(=O)Nc2cccc(OCC(F)(F)F)c2)c1Cl` [compound 187] showed a logP of 3.06.
On the same count and under the same terms, for `Cn1nc(C(F)F)c(C(=O)Nc2ccccc2C(C)(C)C)c1Cl` [compound 4] the value was 3.21; for `CC(C)Oc1cccc(-c2ccccc2NC(=O)c2c(C(F)F)nn(C)c2F)c1` [compound 111], 3.96.
The molecule `CC(C)=CCc1ccccc1NC(=O)c1c(C(F)F)nn(C)c1Cl` [compound 5] registered a logP of 3.35.
On the same count and under the same terms, in the case of `C=C(C)COc1cccc(NC(=O)c2c(C(F)F)nn(C)c2Cl)c1` [compound 177] it was 3.33; in that of `Cc1ccc(CCC(C)(C)C)c(NC(=O)c2c(C(F)F)nn(C)c2F)c1` [compound 17], 4.29; in that of `CC(C)Oc1cc(NC(=O)c2c(C(F)F)nn(C)c2Cl)c(Cl)cc1Cl` [compound 173], 4.68.
`Cn1nc(C(F)F)c(C(=O)Nc2ccccc2-c2cccc([Si](C)(C)C)c2)c1F` [compound 133] registered a logP of 4.83.
`Cn1nc(C(F)F)c(C(=O)Nc2cccc(C3CC3)c2)c1F` [compound 191] showed a logP of 2.90.
The same measure, in the same setting: in the case of `Cn1nc(C(F)F)c(C(=O)Nc2ccccc2-c2ccc(Cl)cc2Cl)c1F` [compound 123] it was 3.89; in that of `Cn1nc(C(F)F)c(C(=O)Nc2ccccc2-c2cc(F)cc(F)c2)c1Cl` [compound 92], 3.55; in that of `Cn1nc(C(F)F)c(C(=O)Nc2cccc(-c3ccc(F)cc3)c2)c1F` [compound 203], 3.39.
Molecule `Cn1nc(C(F)F)c(C(=O)Nc2ccccc2SC(F)(F)C(F)(F)C(F)(F)F)c1F` [compound 42] gave a logP of 4.25.
Still for that read-out and setting: in the case of `Cn1nc(C(F)F)c(C(=O)Nc2ccccc2OCC(C)(C)C)c1F` [compound 27] it was 4.08; in that of `CC(C)Oc1ccc(-c2cccc(NC(=O)c3c(C(F)F)nn(C)c3F)c2)cc1` [compound 223], 3.96; in that of `Cn1nc(C(F)F)c(C(=O)Nc2ccccc2-c2cccc(OC(F)(F)F)c2)c1Cl` [compound 143], 4.11.
Consider `Cn1nc(C(F)F)c(C(=O)Nc2ccccc2-c2ccc([Si](C)(C)C)cc2)c1F` [compound 134], for which the logP came out at 4.98.
On to `CC(C)Oc1cccc(-c2ccccc2NC(=O)c2c(C(F)F)nn(C)c2Cl)c1` [compound 112], for which the logP is given as 4.36.
Consider `CC(C)c1ccc(-c2ccccc2NC(=O)c2c(C(F)F)nn(C)c2Cl)cc1` [compound 97], for which the logP came out at 4.86.
Turning to `Cn1nc(C(F)F)c(C(=O)Nc2ccccc2OCc2ccccc2)c1F` [compound 158], the logP was found to be 3.67.
For `Cn1nc(C(F)F)c(C(=O)Nc2ccccc2-c2cccc([Si](C)(C)C)c2)c1Cl` [compound 132], the logP is listed as 5.25.
On the same count and under the same terms, in the case of `Cn1nc(C(F)F)c(C(=O)Nc2cc(Cl)ccc2CCC(C)(C)C)c1F` [compound 18] it was 4.51; in that of `Cn1nc(C(F)F)c(C(=O)Nc2cccc(-c3cccc([Si](C)(C)C)c3)c2)c1Cl` [compound 238], 5.17.
`Cc1cccc(NC(=O)c2c(C(F)F)nn(C)c2F)c1CCC(C)(C)C` [compound 16]: the logP was determined as 4.06.
On to `Cn1nc(C(F)F)c(C(=S)Nc2ccccc2C2CC2C2CC2)c1Cl` (single isomer, unassigned) [Example 49], for which the logP turned out to be 3.79.
Same read-out and setting: for `Cn1nc(C(F)F)c(C(=O)Nc2ccccc2SCC2CC2(Cl)Cl)c1F` (centres unmarked) [compound 41] the value was 3.27; for `Cn1nc(C(F)F)c(C(=O)Nc2cc3c(cc2Br)OC(F)(F)O3)c1F` [compound 196], 3.58.
Same read-out and setting: in the case of `Cn1nc(C(F)F)c(C(=O)Nc2cccc(Br)c2)c1F` [compound 189] it was 2.82.
Still for that read-out and setting: in the case of `Cn1nc(C(F)F)c(C(=O)Nc2ccccc2-c2ccc(C(C)(C)C)cc2)c1F` [compound 109] it was 4.73.
`CCOc1ccc(NC(=O)c2c(C(F)F)nn(C)c2F)cc1OCC` [compound 167] showed a logP of 2.54.
On the same count and under the same terms, in the case of `CC(C)Oc1cccc(NC(=S)c2c(C(F)F)nn(C)c2Cl)c1` [Example 171] it was 3.41; in that of `Cn1nc(C(F)F)c(C(=O)Nc2cccc(Br)c2)c1Cl` [compound 190], 3.04; in that of `Cn1nc(C(F)F)c(C(=O)Nc2ccc3c(c2)OCO3)c1Cl` [compound 195], 2.20.
Take `Cn1nc(C(F)F)c(C(=O)Nc2ccc3c(c2)OC(F)(F)C(F)(F)O3)c1Cl` [compound 200]: the logP stood at 3.76.
In the case of `Cc1cc(C)cc(-c2ccccc2NC(=O)c2c(C(F)F)nn(C)c2F)c1` [compound 81], the logP is given as 4.11.
Same read-out and setting: in the case of `CC(C)c1cccc(-c2cccc(NC(=O)c3c(C(F)F)nn(C)c3Cl)c2)c1` [compound 213] it was 4.61; in that of `Cn1nc(C(F)F)c(C(=O)Nc2cccc(-c3ccc(Cl)cc3Cl)c2)c1F` [compound 229], 4.21; in that of `CC(C)Oc1ccc(-c2ccccc2NC(=O)c2c(C(F)F)nn(C)c2F)cc1` [compound 113], 4.01.
On the same count and under the same terms, for `CC(C)Oc1cccc(-c2cccc(NC(=O)c3c(C(F)F)nn(C)c3F)c2)c1` [compound 221] the value was 3.99; for `Cn1nc(C(F)F)c(C(=O)Nc2cccc(OCC(F)(F)F)c2)c1F` [compound 186], 2.88; for `CC(C)c1ccccc1NC(=O)c1c(C(F)F)nn(C)c1F` [compound 1], 2.82.
Still for that read-out and setting: for `Cn1nc(C(F)F)c(C(=O)Nc2ccccc2-c2ccc([Si](C)(C)C)cc2)c1Cl` [compound 136] the value was 5.39; for `Cn1nc(C(F)F)c(C(=O)Nc2ccccc2-c2ccc(C(C)(C)C)cc2)c1Cl` [compound 110], 5.14.
`CC(C)c1ccc(-c2cccc(NC(=O)c3c(C(F)F)nn(C)c3F)c2)cc1` [compound 215] yielded a logP of 4.46.

The data set is the same for the next values; noted with them: reversed-phase HPLC column (C 18).
For `Nc1ccc(F)cc1-c1ccc(C(F)(F)F)cc1` [5-fluoro-4′-(trifluoromethyl)biphenyl-2-amine], the chromatographic logP came to 3.52.

The values above are taken from patent publication US9375004B2 (Bayer Intellectual Property GmbH, priority 2010, dated 2016).
